How the values were obtained:
[1] = test system: HEK293 cells; assay: Cell viability (MTT) assay, HEK293 cells; format: cell-based, human; settings: 48 hours, two-way ANOVA with Dunnett's
[2] = test system: A549 cells; assay: Cell viability (MTT) assay, A549 cells; format: cell-based, human; settings: 48 hours, two-way ANOVA with Dunnett's
[3] = Dose 1 (0.025 mg/ml nanocomposite; 0.001125 mg/ml free Cp, Rib)
[4] = Dose 2 (0.05 mg/ml nanocomposite; 0.00225 mg/ml free Cp, Rib)
[5] = Dose 3 (0.1 mg/ml nanocomposite; 0.0045 mg/ml free Cp, Rib)
[6] = Dose 4 (0.5 mg/ml nanocomposite; 0.0225 mg/ml free Cp, Rib)

Structure (SMILES)	Significant (cell viability vs no-treatment control) [1, 3]	Significant (cell viability vs no-treatment control) [1, 4]	Significant (cell viability vs no-treatment control) [1, 5]	Significant (cell viability vs no-treatment control) [1, 6]	Significant (cell viability vs no-treatment control) [2, 3]	Significant (cell viability vs no-treatment control) [2, 4]	Significant (cell viability vs no-treatment control) [2, 5]	Significant (cell viability vs no-treatment control) [2, 6]
NC(=O)c1ncn([C@@H]2O[C@H](CO)[C@@H](O)[C@H]2O)n1 [Rib, 1-β-D-Ribofuranosyl-1,2,4-triazole-3-carboxamide]	No	No	Yes	Yes	No	No	No	Yes
N.N.[Cl][Pt][Cl] [Cp, cisplatin]	No	No	No	Yes	No	No	No	Yes

From patent publication US12629392B2, “Method of treating covid-19 infection using superparamagnetic iron oxide nanoparticle” (Imam Abdulrahman Bin Faisal University, priority 2023, dated 2026)
